From ChEMBL document CHEMBL4007425, “Drug Repurposing of Histone Deacetylase Inhibitors That Alleviate Neutrophilic Inflammation in Acute Lung Injury and Idiopathic Pulmonary Fibrosis via Inhibiting Leukotriene A4 Hydrolase and Blocking LTB4 Biosynthesis” (J Med Chem, 2017)
Calls of active or inactive are those of the source. The calls are words filed in the database; no cut-off is given here.

How the values were obtained:
Mus musculus [1] = test: Anti-inflammatory activity in BLM-induced C57BL/6 mouse model of acute lung neutrophilic inflammation assessed as reduction in total cell number in BALF at 25 and 50 mg/kg, ip qd for 7 days post BLM challenge measured on day 7; type: functional, organism-based
Mus musculus [2] = test: Anti-inflammatory activity in BLM-induced C57BL/6 mouse model of acute lung injury assessed as reduction in IL-1beta level in BALF at 25 and 50 mg/kg, ip qd for 7 days post BLM challenge measured on day 7 by ELISA; type: functional, organism-based
Mus musculus [3] = test: Anti-inflammatory activity in LPS-induced C57BL/6 mouse model of acute lung injury assessed as reduction in alveolar vascular permeability at 10 to 50 mg/kg, ip pretreated for 1 hr followed LPS challenge measured after 24 hrs by Evans blue dye based microscopy; type: functional, organism-based
Mus musculus [4] = test: Anti-inflammatory activity in BLM-induced C57BL/6 mouse model of acute lung neutrophilic inflammation assessed as protein concentration in BALF at 50 mg/kg, ip qd for 7 days post BLM challenge measured on day 7 (reference value: 2.39 mg/ml); type: functional
Mus musculus [5] = test: Anti-inflammatory activity in LPS-induced C57BL/6 mouse model of acute lung injury assessed as reduction in neutrophil infiltration by measuring MPO activity at 10 to 50 mg/kg, ip pretreated for 1 hr followed LPS challenge measured after 24 hrs; type: functional, organism-based
Mus musculus [6] = test: Anti-inflammatory activity in LPS-induced C57BL/6 mouse model of acute lung injury assessed as reduction in total number of leucocytes in BALF at 10 to 50 mg/kg, ip pretreated for 1 hr followed LPS challenge measured after 24 hrs; type: functional, organism-based
Mus musculus [7] = test: Protection against BLM-induced lung fibrosis in C57BL/6 mouse assessed as TGF-beta1 level at 50 mg/kg, ip qd for 7 days post BLM challenge measured on day 7 by ELISA (reference value: 75.39 pg/ml); type: functional
Mus musculus [8] = test: Anti-inflammatory activity in LPS-induced C57BL/6 mouse model of acute lung injury assessed as reduction in hyperemia of pulmonary alveolar septa at 10 to 50 mg/kg, ip pretreated for 1 hr followed LPS challenge measured after 24 hrs by hematoxylin and eosin staining based microscopy; type: functional, organism-based
Mus musculus [9] = test: Anti-inflammatory activity in LPS-induced C57BL/6 mouse model of acute lung injury assessed as reduction in IL-6 mRNA level pretreated intraperitoneally for 1 hr followed LPS challenge after 24 hrs by qRT-PCR method; type: functional
Mus musculus [10] = test: Anti-inflammatory activity in BLM-induced C57BL/6 mouse model of acute lung neutrophilic inflammation assessed as reduction in number of lymphocytes in BALF at 25 and 50 mg/kg, ip qd for 7 days post BLM challenge measured on day 7; type: functional, organism-based
Mus musculus [11] = test: Anti-inflammatory activity in BLM-induced C57BL/6 mouse model of acute lung neutrophilic inflammation assessed as reduction in macrophage number in BALF at 25 and 50 mg/kg, ip qd for 7 days post BLM challenge measured on day 7; type: functional, organism-based
Mus musculus [12] = test: Protection against BLM-induced lung fibrosis in C57BL/6 mouse assessed as TGF-beta1 level at 25 and 50 mg/kg, ip qd for 7 days post BLM challenge measured on day 7 by qRT-PCR method; type: functional, organism-based
Mus musculus [13] = test: Protection against BLM-induced lung fibrosis in C57BL/6 mouse assessed as TGF-beta1 level at 10 and 25 mg/kg, ip qd for 7 days post BLM challenge measured on day 7 by qRT-PCR method; type: functional, organism-based
Mus musculus [14] = test: Protection against BLM-induced lung fibrosis in C57BL/6 mouse assessed as TGF-beta1 level at 10 and 25 mg/kg, ip qd for 7 days post BLM challenge measured on day 14 by qRT-PCR method; type: functional, organism-based
Mus musculus [15] = test: Protection against BLM-induced lung fibrosis in C57BL/6 mouse assessed as reduction in hydroxyproline level at 25 mg/kg, ip qd for 7 days post BLM challenge measured on day 14; type: functional; conditions: C57BL/6, ip
Mus musculus [16] = test: Anti-inflammatory activity in BLM-induced C57BL/6 mouse model of acute lung neutrophilic inflammation assessed as LTB4 level at 25 mg/kg, ip qd for 7 days post BLM challenge measured on day 7 (reference value: 139.23 pg/ml); type: functional
Mus musculus [17] = test: Anti-inflammatory activity in BLM-induced C57BL/6 mouse model of acute lung neutrophilic inflammation assessed as reduction in macrophage number in BALF at 10 and 25 mg/kg, ip qd for 7 days post BLM challenge measured on day 7; type: functional, organism-based
Mus musculus [18] = test: Anti-inflammatory activity in BLM-induced C57BL/6 mouse model of acute lung neutrophilic inflammation assessed as reduction neutrophil count at 50 mg/kg, ip qd for 7 days post BLM challenge measured on day 7; type: functional, organism-based

Structure (SMILES) | Activity (Mus musculus [1]) | Activity (Mus musculus [2]) | Activity (Mus musculus [3]) | Activity (Mus musculus [4]) | Activity (Mus musculus [5]) | Activity (Mus musculus [6]) | Activity (Mus musculus [7]) | Activity (Mus musculus [8]) | Activity (Mus musculus [9]) | Activity (Mus musculus [10]) | Activity (Mus musculus [11]) | Activity (Mus musculus [12]) | Activity (Mus musculus [13]) | Activity (Mus musculus [14]) | inhibition in vivo at 25 mg/kg (Mus musculus [15]) | Activity (Mus musculus [16]) | Activity (Mus musculus [17]) | Activity (Mus musculus [18])
O=C(CCCCCCC(=O)Nc1ccccc1)NO [VORINOSTAT] | Active | Active | Active | 1.79 mg/mL | Active | Active | 34.09 pg/mL | Active | Dose-dependent effect | Active | Active | Active |  |  |  |  |  | 
CN(C)c1ccc(C(=O)NCCCCCCC(=O)NO)cc1 |  |  |  |  |  |  |  |  |  |  |  |  | Active | Active | 34% | 37.23 pg/mL | Active | Active
